The structures appear in SMILES notation.

The first experiment has as its system SCLC strain SHP-77. Nature of the experiment: MTT assay for cell survival, SCLC SHP-77 in vitro. It counts as cell-based, human. As to conditions: ED50 for killing of SCLC strain SHP-77 in vitro, 4 days, 0 = no detectable activity, read-out: SCLC SHP-77 IC50.
Take `CC1CN(C(=O)C(Cc2ccc(OCc3c(Cl)cccc3Cl)cc2)NC(=O)C(=Cc2ccccc2)c2ccccc2)CC(C)N1Cc1ccccc1` (stereo not drawn) [Analog M-1662, Pcn-OC2Y-cDmbp]: the half-maximal inhibitory concentration (IC50) (as a rule, the midpoint of a concentration-inhibition curve) is 20 µM.
With `CN1CCN(CCCNC(=O)[C@H](Cc2ccc(OCc3c(Cl)cccc3Cl)cc2)NC(=O)C(=Cc2ccccc2)c2ccccc2)CC1` [Analog M-1658, Pcn-OC2Y-Amp], the IC50 was determined as 10 µM.
For `O=C(/C=C/c1c(F)c(F)c(F)c(F)c1F)N[C@@H](Cc1ccc(OCc2c(Cl)cccc2Cl)cc1)C(=O)N1CCCN(Cc2ccccc2)CC1` [Analog M-1606, F5c-OC2Y-Bhp], the half-maximal inhibitory concentration (IC50) amounted to 17 µM.
The same measure, in the same setting: with `O=C(N[C@@H](Cc1ccc(OCc2c(Cl)cccc2Cl)cc1)C(=O)NC1CCN(Cc2ccccc2)CC1)C(=Cc1ccccc1)c1ccccc1` [Analog M-1660, Pcn-OC2Y-Abzp] the figure was 31 µM; with `O=C(N[C@H]1CN2CCC1CC2)C(Cc1ccc(OCc2c(Cl)cccc2Cl)cc1)NC(=O)C(c1ccccc1)C1CCCCC1` (single isomer, unassigned) [M-1548 #2], 13 µM.
Take `Cc1ccccc1C=CC(=O)NC(Cc1ccc(OCc2c(Cl)cccc2Cl)cc1)C(=O)NC1CC(C)(C)NC(C)(C)C1` (stereo not drawn) [Analog M-1778, Mca-OC2Y-Atmp]: the half-inhibitory concentration (IC50) came to 1.5 µM.
The same measure, in the same setting: in the case of `O=C(N[C@@H](Cc1ccc(OCc2c(Cl)cccc2Cl)cc1)C(=O)N1CCN(c2ncccn2)CC1)C(=Cc1ccccc1)c1ccccc1` [Analog M-1670, Pcn-OC2Y-Pmpz] it was 50 µM; in that of `CC(C)CC(NC(=O)OCC1c2ccccc2-c2ccccc21)C(=O)NC1CC(C)(C)NC(C)(C)C1` (stereo not drawn) [Analog M-1798, Fmoc-Leu-Atmp], 7.6 µM; in that of `COc1ccc2c(CC(=O)NC(Cc3ccc(OCc4c(Cl)cccc4Cl)cc3)C(=O)NC3CC(C)(C)NC(C)(C)C3)cc(=O)oc2c1` (stereo not drawn) [Analog M-1744, Mcoa-OC2Y-Atmp], 7.1 µM.
On the same count and under the same terms, with `O=C(c1ccccc1)c1ccc2n1CCC2C(=O)N[C@@H](Cc1ccc(OCc2c(Cl)cccc2Cl)cc1)C(=O)NC1CCN(Cc2ccccc2)CC1` (stereo partly drawn) [Analog M-1668, Ktlc-OC2Y-Abzp] the figure was 4.6 µM; with `O=C(C=Cc1c(F)c(F)c(F)c(F)c1F)NC(Cc1ccc(OCc2c(Cl)cccc2Cl)cc1)C(=O)N1CCN(Cc2c(F)c(F)c(F)c(F)c2F)CC1` (stereo not drawn) [Analog M-1732, F5c-OC2Y-Pipz(F5b)], 24 µM.
Same read-out and setting: in the case of `CC1(C)CC(NC(=O)C(Cc2ccc(OCc3c(Cl)cccc3Cl)cc2)NC(=O)C=Cc2ccc(-c3ccccc3)cc2)CC(C)(C)N1` (stereo not drawn) [Analog M-1776, Pcin-OC2Y-Atmp] it was 1.4 µM.

The experiment is the same for the next values; noted with them: ED50 for killing of SCLC strain SHP-77 in vitro, 4 days, 0 = no detectable activity, read-out: SHP-77 In vitro IC50.
In the case of `O=C(C=Cc1c(F)c(F)c(F)c(F)c1F)NC(Cc1ccc2ccccc2c1)C(=O)N1CCC(N2CCCCC2)CC1` (stereo not drawn) [Analog M-1250, F5c-Nal-Pipp], the IC50 amounted to 7.6 µM.
On the same count and under the same terms, in the case of `O=C(C=Cc1c(F)c(F)c(F)c(F)c1F)NC(Cc1ccc(F)cc1)C(=O)N1CCN(c2ccc(Cl)cc2)CC1` (stereo not drawn) [Analog M-1208, F5c-PFF-Cpp] it was 30 µM; in that of `CC1(C)CC(NC(=O)C(Cc2ccc(OCc3c(Cl)cccc3Cl)cc2)NC(=O)C(F)(F)C(F)(F)C(F)(F)C(=O)O)CC(C)(C)N1` (stereo not drawn) [M-1098 #1, CHFB-OC2Y-Atmp], above 60 µM.
